Literature values in US20060270610A1, “Novel compounds for hypoxic cell therapy and imaging” (priority 2005, published 2006).
Read-outs that look alike come from different tables or passages of the source.

Key:
[1] = target: T1, NBMPR (nitrobenzylthioinosine)-sensitive equilibrative nucleoside transporter (Homo sapiens, UniProt Q99808); conditions: in vitro, erythrocytes
T1 construct: equilibrative nucleoside transporter in erythrocytes; endogenous in cells
T1 sequence (Q99808 1-456): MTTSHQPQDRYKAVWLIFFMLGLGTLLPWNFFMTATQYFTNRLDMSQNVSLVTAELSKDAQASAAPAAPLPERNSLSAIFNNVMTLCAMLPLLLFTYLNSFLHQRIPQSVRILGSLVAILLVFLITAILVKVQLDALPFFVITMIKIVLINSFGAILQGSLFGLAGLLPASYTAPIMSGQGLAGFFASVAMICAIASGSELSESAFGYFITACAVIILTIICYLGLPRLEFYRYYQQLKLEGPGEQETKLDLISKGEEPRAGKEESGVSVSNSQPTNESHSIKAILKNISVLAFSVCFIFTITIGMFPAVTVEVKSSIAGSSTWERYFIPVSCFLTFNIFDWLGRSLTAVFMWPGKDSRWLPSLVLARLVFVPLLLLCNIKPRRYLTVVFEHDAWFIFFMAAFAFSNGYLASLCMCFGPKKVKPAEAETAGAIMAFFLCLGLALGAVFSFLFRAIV

[2] = rats, via the renal system; compared with [18F]FMISO
murine tumor models = conditions: three different murine tumor models; greater than [18F]FMISO

For O=[N+]([O-])c1nccn1[C@H]1O[C@H](CI)[C@@H](O)[C@@H]1O [IAZA, 1-α-D-(5-dexoy-5-iodorabinofuranosyl)-2-nitroimidazole], the “transport by NBMPR-sensitive equilibrative nucleoside transporter” value [1] is listed as “not transported”.
In the case of O=[N+]([O-])c1nccn1[C@H]1O[C@H](C[18F])[C@@H](O)[C@@H]1O [[^18F] 1-α-D-FAZA], the “uptake in normal brain tissue” value (patients studied sequentially) is given as “absence of [^18F] 1-α-D-FAZA uptake”, the “clearance from blood, viscera and muscle tissue” value [2] is given as “faster clearance” and the “tumor:blood ratios relative to [18F]FMISO” value (murine tumor models) is given as 2-4 times.
For OC[C@H]1OC(O)[C@H]([18F])[C@@H](O)[C@@H]1O (stereo partly drawn) [[^18F]FDG], the “uptake in normal brain tissue” value (human, in vivo) is given as “taken up as a reflection of glucose metabolism in healthy brain”.
In the case of O=[N+]([O-])c1nccn1CC(O)C[18F] (stereo not drawn) [[^18F]FMISO], the “uptake in normal brain tissue” value (human, in vivo) is given as “taken up non-specifically by brain”.
